This is an account of results in US20230066011A1, “PYRROLOPYRIMIDINE DERIVATIVE, AND PHARMACEUTICAL COMPOSITION FOR PREVENTING OR TREATING PROTEIN KINASE-RELATED DISEASE COMPRISING SAME AS ACTIVE INGREDIENT” (VORONOI CO., LTD., priority 2019, published 2023).

A word on the GI50: it is the concentration that inhibits growth by half. Higher therefore signals less potent growth inhibition. The term IC50 denotes the concentration that gives 50% inhibition.

The subject of one assay is MDA-MB-468 cell line. Description: Inhibition of proliferation of MDA-MB-468 cancer cells (Cell Titer-Glo). The settings on record: Homo sapiens, MDA-MB-468, 72 hours. The assay is classed as cell-based. The protocol: (§1) To evaluate an inhibitory effect on the proliferation of cancer cells, each of an MDA-MB-231 cell line (Korean Cell Line Bank #30026) and an MDA-MB-468 cell line as triple-negative breast cancer cell lines, and SHP-77 (ATCC #CRL-2195) as a small-cell lung cancer cell line was cultured in DMEM (HyClone #SH30243) or an RPMI medium (HyClone #SH3027.01) to analyze a cell growth rate. More specifically, a cell line was plated on a 96-well flat bottom plate (Corning #3903) at a density of 2,000 cells/100 μL per well, and then treated with 11 concentrations of the Example compound, a solution of which was diluted 3-fold so that a final concentration of the compound was 10.000000, 3.333333, 1.111111, 0.370370, 0.123457, 0.041152, 0.013717, 0.004572, 0.001524, 0.000508, and 0.000169 μM. After 72 hours, each of the culture media was treated with 100 μL of Cell Titer-Glo (Promega G7573), and then cultured at room temperature for 10 minutes. Then, a degree of luminescence was measured using a microplate reader. A GI50 value was calculated from the measured degree of luminescence using Prism (Version 8.2 GraphPad) software.

In a further assay the test system is MDA-MB-231 cell line. Description: Inhibition of proliferation of MDA-MB-231 cancer cells (Cell Titer-Glo). The assay is classed as cell-based. The settings on record: Homo sapiens, 72 hours. The protocol:
as §1

In the next assay the target is LRRK2 (G2019S) (Homo sapiens, UniProt Q5S007, G2019S). Description: LRRK2 G2019S enzyme inhibition, ADP-Glo kinase assay. The note with it: ATP 25 μM. The assay is classed as biochemical. Details: purchased SignalChem L10-12GG. The gist of the method:
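Purified human LRRK2 G2019S (16 ng) with 25 μM ATP and 0.2 μg substrate, 2 h at 25° C. in Tris-HCl pH 7.4, MgCl2, BSA, DTT buffer; compounds at 12 final concentrations, 50 μM down to 0.000001024 μM. ADP-Glo luminescence versus solvent control gave IC50.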
For orientation: In ADP-Glo the light output rises with the ADP produced.

For the next assay, the target named is T1, human GST-DYRK1A (Homo sapiens, UniProt Q13627).
T1 construct: purified human GST-DYRK1A (full length, Thermo Scientifics) enzyme; purchased Thermo Scientifics
In words: GST-DYRK1A enzyme inhibition, ADP-Glo kinase assay. The assay is classed as biochemical. The settings on record: ATP 10 μM, GST-DYRK1A full length, read-out: DYRK1 IC50. The gist of the method: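 Full-length human GST-DYRK1A (10 ng) with 10 μM ATP and specific substrate in 40 mM Tris-HCl pH 7.4, 20 mM MgCl2, 0.5 mg/mL BSA, 50 μM DTT, 1 h at 25 °C. ADP formation read by ADP-Glo luminescence relative to solvent control; IC50 from three data sets.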

The next assay concerns the target T2, human GST-CLK1 (Homo sapiens, UniProt P49759).
T2 construct: purified human GST-CLK1 (129-end, SignalChem) enzyme; purchased SignalChem
Description: GST-CLK1 enzyme inhibition, ADP-Glo kinase assay. The assay is classed as biochemical. The settings on record: ATP 10 μM, GST-CLK1 129-end. In short, it runs like this: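 Human GST-CLK1 (129-end, 3 ng) reacted with substrate and 10 μM ATP for 1 h at 25° C in 40 mM Tris-HCl pH 7.4, 20 mM MgCl2, 0.5 mg/mL BSA, 50 μM DTT. ADP-Glo luminescence was normalised to solvent control; IC50 (nM) from 3 data sets.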

Another assay concerns the target LRRK2 (Homo sapiens, UniProt Q5S007). In words: LRRK2 enzyme inhibition, ADP-Glo kinase assay. Further details: purchased Invitrogen PR8604B. The settings on record: ATP 10 μM. The assay is classed as biochemical. In short, it runs like this:
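Purified human LRRK2 (25 ng) with 10 μM ATP and 0.2 μg substrate in 40 mM Tris-HCl pH 7.4, 20 mM MgCl2, 0.5 mg/mL BSA, 50 μM DTT, 2 h at 25° C. ADP-Glo luminescence; 12-point compound series from 50 μM final; IC50 relative to solvent control.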

Sequence of LRRK2 (Q5S007 970-2527 limits assumed): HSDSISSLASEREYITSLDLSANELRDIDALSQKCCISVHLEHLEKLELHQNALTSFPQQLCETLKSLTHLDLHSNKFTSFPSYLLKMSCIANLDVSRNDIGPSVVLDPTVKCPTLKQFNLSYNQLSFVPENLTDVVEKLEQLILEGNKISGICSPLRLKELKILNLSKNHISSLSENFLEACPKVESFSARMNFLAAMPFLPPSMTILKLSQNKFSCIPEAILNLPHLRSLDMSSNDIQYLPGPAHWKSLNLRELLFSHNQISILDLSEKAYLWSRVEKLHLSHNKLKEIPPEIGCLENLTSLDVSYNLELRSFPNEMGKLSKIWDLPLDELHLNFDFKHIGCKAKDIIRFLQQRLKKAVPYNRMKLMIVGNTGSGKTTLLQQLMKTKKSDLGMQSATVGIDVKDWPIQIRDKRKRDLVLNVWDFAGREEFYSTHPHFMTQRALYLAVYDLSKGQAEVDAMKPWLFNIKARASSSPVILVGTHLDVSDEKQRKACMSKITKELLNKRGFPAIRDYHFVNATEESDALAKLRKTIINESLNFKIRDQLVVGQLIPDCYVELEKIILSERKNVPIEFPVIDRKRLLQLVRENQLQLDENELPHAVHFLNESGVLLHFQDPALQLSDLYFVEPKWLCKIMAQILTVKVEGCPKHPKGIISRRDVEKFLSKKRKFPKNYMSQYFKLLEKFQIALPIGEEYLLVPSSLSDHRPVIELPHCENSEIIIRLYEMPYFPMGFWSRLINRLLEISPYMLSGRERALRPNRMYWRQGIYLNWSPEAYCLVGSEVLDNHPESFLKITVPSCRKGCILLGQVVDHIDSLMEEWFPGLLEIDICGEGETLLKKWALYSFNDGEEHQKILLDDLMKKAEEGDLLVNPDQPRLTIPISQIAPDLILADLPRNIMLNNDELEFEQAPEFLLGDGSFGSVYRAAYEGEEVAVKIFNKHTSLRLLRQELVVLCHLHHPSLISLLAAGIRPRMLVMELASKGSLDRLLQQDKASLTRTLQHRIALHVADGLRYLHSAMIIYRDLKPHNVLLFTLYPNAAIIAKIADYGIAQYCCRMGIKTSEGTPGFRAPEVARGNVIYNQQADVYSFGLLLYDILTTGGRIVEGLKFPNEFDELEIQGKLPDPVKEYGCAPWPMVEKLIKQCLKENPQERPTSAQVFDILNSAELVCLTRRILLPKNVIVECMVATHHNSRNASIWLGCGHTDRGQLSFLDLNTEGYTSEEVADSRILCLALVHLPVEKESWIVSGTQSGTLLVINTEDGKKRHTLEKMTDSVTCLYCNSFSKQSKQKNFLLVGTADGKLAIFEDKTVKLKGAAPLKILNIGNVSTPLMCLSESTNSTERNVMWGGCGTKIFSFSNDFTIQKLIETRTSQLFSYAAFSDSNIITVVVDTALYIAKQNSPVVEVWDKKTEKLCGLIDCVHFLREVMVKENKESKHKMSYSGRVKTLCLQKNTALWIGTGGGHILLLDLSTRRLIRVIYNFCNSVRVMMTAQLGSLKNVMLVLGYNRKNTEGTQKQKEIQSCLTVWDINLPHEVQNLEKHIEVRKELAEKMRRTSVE
T2 sequence (P49759 129-484 limits assumed): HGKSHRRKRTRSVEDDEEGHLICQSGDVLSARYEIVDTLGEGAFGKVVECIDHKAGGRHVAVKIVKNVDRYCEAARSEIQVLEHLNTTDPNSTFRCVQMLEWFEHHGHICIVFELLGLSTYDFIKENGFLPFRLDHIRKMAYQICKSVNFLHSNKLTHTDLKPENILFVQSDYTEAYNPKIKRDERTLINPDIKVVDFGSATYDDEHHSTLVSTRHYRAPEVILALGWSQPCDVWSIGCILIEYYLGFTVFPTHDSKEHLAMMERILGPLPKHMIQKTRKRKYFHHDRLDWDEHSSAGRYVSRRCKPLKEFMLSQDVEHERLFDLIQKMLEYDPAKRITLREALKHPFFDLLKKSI
Sequence of LRRK2 (G2019S) (Q5S007 970-2527 G2019S limits assumed): as the sequence (Q5S007 970-2527 limits assumed) above, with G1050S counted along it

Take `COc1cc(S(=O)(=O)N2CCOCC2)ccc1Nc1nc(N[C@@H]2CCOC2)c2c(C(F)(F)F)c[nH]c2n1` [Example 382, (R)-N^2-(2-methoxy-4-(morpholino-sulfonyl)phenyl)-N^4-(tetrahydrofuran-3-yl)-5-(trifluoromethyl)-7H-pyrrolo[2,3-d]pyrimidine-2,4-diamine]: the GI50 lay within 301 to 1000 nM in the assay on MDA-MB-468 cell line and 101 to 300 nM with MDA-MB-231 cell line. Further, the IC50 was less than 100 nM against LRRK2 (G2019S), 301 to 1000 nM on human GST-DYRK1A and 301 to 1000 nM against human GST-CLK1.

`COc1cc(S(=O)(=O)N2CCOCC2)ccc1Nc1nc(N[C@H]2CCOC2)c2c(C(F)(F)F)c[nH]c2n1` [Example 383, (S)-N^2-(2-methoxy-4-(morpholino-sulfonyl)phenyl)-N^4-(tetrahydrofuran-3-yl)-5-(trifluoromethyl)-7H-pyrrolo[2,3-d]pyrimidine-2,4-diamine]: the concentration for 50% growth inhibition (GI50) in the assay on MDA-MB-468 cell line is 301 to 1000 nM; with MDA-MB-231 cell line, 101 to 300 nM. Also, the IC50 against LRRK2 (G2019S) is less than 100 nM; at human GST-DYRK1A it was 301 to 1000 nM; on human GST-CLK1, 301 to 1000 nM.

On to `COc1cc(P(C)(C)=O)ccc1Nc1nc(NC2CCCCC2)c2c(C#N)c[nH]c2n1` [Example 117, 4-(cyclohexylamino)-2-((4-(dimethylphosphoryl)-2-methoxyphenyl)amino)-7H-pyrrolo[2,3-d]pyrimidine-5-carbonitrile], for which the GI50 in the assay on MDA-MB-468 cell line and in the assay with MDA-MB-231 cell line was less than 50 nM in each case. The molecule also came in with a half-inhibitory concentration (IC50) against human GST-CLK1 of 301 to 1000 nM.

Regarding `CCCNc1nc(Nc2ccc(S(=O)(=O)N3CCOCC3)cc2OC)nc2[nH]cc(C(F)(F)F)c12` [Example 372, N^2-(2-methoxy-4-(morpholino-sulfonyl)phenyl)-N^4-propyl-5-(trifluoromethyl)-7H-pyrrolo[2,3-d]pyrimidine-2,4-diamine], the GI50 in the assay with MDA-MB-468 cell line and in the assay on MDA-MB-231 cell line was 301 to 1000 nM throughout. Also, the IC50 at LRRK2 (G2019S) was less than 100 nM; at human GST-DYRK1A it was 301 to 1000 nM; against human GST-CLK1, 301 to 1000 nM; on LRRK2, 101 to 300 nM.

Consider `CCCNc1nc(Nc2ccc(S(=O)(=O)N3CCC(N4CCOCC4)CC3)cc2OC)nc2[nH]cc(C#N)c12` [Example 83, 2-((2-methoxy-4-((4-morpholinopiperidin-1-yl)sulfonyl)phenyl)amino)-4-(propylamino)-7H-pyrrolo[2,3-d]pyrimidin-5-carbonitrile], for which the GI50 in the assay on MDA-MB-468 cell line and with MDA-MB-231 cell line was less than 50 nM throughout. For the same molecule, the IC50 against LRRK2 (G2019S) is less than 100 nM; at human GST-DYRK1A, 301 to 1000 nM; at human GST-CLK1, 101 to 300 nM; on LRRK2, less than 100 nM.

For the molecule `COc1cc(S(=O)(=O)N2CCC(N3CCOCC3)CC2)ccc1Nc1nc(NC(C)C)c2c(C#N)c[nH]c2n1` [Example 85, 4-(isopropylamino)-2-((2-methoxy-4-((4-morpholinopiperidin-1-yl)sulfonyl)phenyl)amino)-7H-pyrrolo[2,3-d]pyrimidine-5-carbonitrile], the GI50 with MDA-MB-468 cell line and with MDA-MB-231 cell line was less than 50 nM in each case. In addition, the concentration for half-maximal inhibition (IC50) against LRRK2 (G2019S) is less than 100 nM; at human GST-DYRK1A, 301 to 1000 nM; against human GST-CLK1, 101 to 300 nM.

For `CCNc1nc(Nc2ccc(S(=O)(=O)N3CCOCC3)c3c2OCCO3)nc2[nH]cc(C(F)(F)F)c12` [Example 432, N^4-ethyl-N^2-(8-(morpholino-sulfonyl)-2,3-dihydro-benzo[b][1,4]dioxin-5-yl)-5-(trifluoromethyl)-7H-pyrrolo[2,3-d]pyrimidine-2,4-diamine], the 50% growth inhibitory concentration (GI50) in the assay with MDA-MB-468 cell line and in the assay on MDA-MB-231 cell line was 301 to 1000 nM each time. Further, the half-inhibitory concentration (IC50) at LRRK2 (G2019S) is 101 to 300 nM; at human GST-DYRK1A it was 301 to 1000 nM; against human GST-CLK1, 301 to 1000 nM; on LRRK2, less than 100 nM.

`COc1cc(S(=O)(=O)N2CCC(N3CCOCC3)CC2)ccc1Nc1nc(NC2CC2)c2c(C(F)(F)F)c[nH]c2n1` [Example 375, N^4-cyclopropyl-N^2-(2-methoxy-4-((4-morpholino-piperidin-1-yl)sulfonyl)phenyl)-5-(trifluoromethyl)-7H-pyrrolo[2,3-d]pyrimidine-2,4-diamine]: the GI50 in the assay with MDA-MB-468 cell line lay within 301 to 1000 nM; in the assay with MDA-MB-231 cell line, 101 to 300 nM. In addition, the IC50 against LRRK2 (G2019S) is less than 100 nM; on human GST-DYRK1A, 301 to 1000 nM; against human GST-CLK1, 101 to 300 nM; against LRRK2 it was less than 100 nM.

`COc1cc(S(=O)(=O)N2CCC(N3CCOCC3)CC2)ccc1Nc1nc(NCC2CCCC2)c2c(C#N)c[nH]c2n1` [Example 95, 4-((cyclopentylmethyl)amino)-2-((2-methoxy-4-((4-morpholinopiperidin-1-yl)sulfonyl)phenyl)amino)-7H-pyrrolo[2,3-d]pyrimidine-5-carbonitrile]: the GI50 in the assay on MDA-MB-468 cell line and with MDA-MB-231 cell line was 101 to 300 nM in each case. Further, the results for the IC50 on human GST-DYRK1A, against human GST-CLK1 and on LRRK2 were 301 to 1000 nM, 301 to 1000 nM and less than 100 nM, respectively.

In the assay with MDA-MB-468 cell line, `COCCNc1nc(Nc2ccc(P3(=O)CCN(C4CC4)CC3)cc2OC)nc2[nH]cc(C(F)(F)F)c12` [Example 412, 1-cyclopropyl-4-(3-methoxy-4-((4-((2-methoxyethyl)amino)-5-(trifluoromethyl)-7H-pyrrolo[2,3-d]pyrimidin-2-yl)amino)phenyl)-1,4-azaphosphinane 4-oxide] gave a GI50 of 301 to 1000 nM. Moreover, the IC50 at human GST-DYRK1A, against human GST-CLK1 and against LRRK2 was less than 100 nM throughout.

With `N#Cc1c[nH]c2nc(Nc3ccc(C(=O)N4CCOCC4)c4c3OCCO4)nc(NC3CCCC3)c12` [Example 126, 4-(cyclopentylamino)-2-((8-(morpholine-4-carbonyl)-2,3-dihydrobenzo[b][1,4]dioxin-5-yl)amino)-7H-pyrrolo[2,3-d]pyrimidine-5-carbonitrile], the GI50 in the assay on MDA-MB-468 cell line was 51 to 100 nM; in the assay on MDA-MB-231 cell line, 101 to 300 nM. In addition, the IC50 on human GST-DYRK1A was 301 to 1000 nM; at human GST-CLK1 it was 301 to 1000 nM; at LRRK2, less than 100 nM.

Take `N#Cc1c[nH]c2nc(Nc3ccc(C(=O)N4CCOCC4)c4c3OCC4)nc(NC3CCCCC3)c12` [Example 321, 4-(cyclo-hexylamino)-2-((4-(morpholine-4-carbonyl)-2,3-dihydrobenzo-furan-7-yl)amino)-7H-pyrrolo[2,3-d]pyrimidine-5-carbonitrile]: the GI50 in the assay with MDA-MB-468 cell line is less than 50 nM. Moreover, the values for the IC50 on human GST-DYRK1A, against human GST-CLK1 and at LRRK2 were 301 to 1000 nM, 101 to 300 nM and 101 to 300 nM, respectively.

Take `CCNc1nc(Nc2ccc(S(=O)(=O)N3CCC(N4CCOCC4)CC3)c3c2OCC3)nc2[nH]cc(C(F)(F)F)c12` [Example 467, N^4-ethyl-N^2-(4-((4-morpholino-piperidin-1-yl)sulfonyl)-2,3-dihydrobenzo-furan-7-yl)-5-(trifluoromethyl)-7H-pyrrolo[2,3-d]pyrimidine-2,4-diamine]: the GI50 in the assay with MDA-MB-468 cell line fell in the range of 101 to 300 nM; in the assay with MDA-MB-231 cell line, 51 to 100 nM. Further, the IC50 is 301 to 1000 nM on human GST-DYRK1A, 301 to 1000 nM on human GST-CLK1 and less than 100 nM against LRRK2.

With `CC[C@H](C)Nc1nc(Nc2ccc(S(=O)(=O)N3CCC(N4CCOCC4)CC3)cc2OC)nc2[nH]cc(C#N)c12` [Example 263, (S)-4-(sec-butylamino)-2-((2-methoxy-4-((4-morpholinopiperidin-1-yl)sulfonyl)phenyl)amino)-7H-pyrrolo[2,3-d]pyrimidine-5-carbonitrile], the GI50 was 51 to 100 nM in the assay with MDA-MB-468 cell line and less than 50 nM in the assay on MDA-MB-231 cell line. The IC50 on human GST-DYRK1A and on human GST-CLK1 was 301 to 1000 nM throughout.
